Experimental data taken from patent publication US20090258079A1, “Biocompatible Block Copolymer, Use Thereof and Manufacturing Method Thereof” (priority 2005, published 2009).

How the values were obtained:
[1] = Solubilization of a drug by micelle formation with the block copolymer; assay type: physicochemical; details: acetic acid buffer (0.1 M), pH 4.5
[2] = drug without block copolymer, stated as known property; cited from earlier work
Hartley male guinea pigs = details: guinea pig, in vivo
Excerpt: Hartley male guinea pigs which were 10 weeks old and weighed 338 to 490 g were used. […] The physiological saline was also sterilized by filtration with a 0.22 μm membrane filter.

Hartley guinea pigs = details: guinea pig, in vivo, iv
Protocol: Hartley guinea pigs which were 7 weeks old and weighed 380 to 510 g were used. […] These substances were dissolved in physiological saline to a predetermined concentration, and the same amount of FCA (Freund's complete adjuvant) or FIA (Freund's incomplete adjuvant) was added to prepare a w/o emulsion. The FCA emulsion was first administered and then the FIA emulsion was administered under the skin of the back and foot pad of each guinea pig at a dose of 2.5 ml/kg on the second and third weeks for sensitization. […] These substances were dissolved in physiological saline to a predetermined concentration. The resulting solution was administered into the veins of the front feet or rear feet of the guinea pigs at a dose of 1.0 ml/kg on the fifth week for induction and observed for 4 hours. For 1 month after that, the weights of the guinea pigs were measured and the general conditions of the guinea pigs were observed once a week.

## CC#CCC(C)[C@H](O)/C=C/[C@@H]1[C@H]2c3cccc(CCCC(=O)O)c3O[C@H]2C[C@H]1O (mixture of isomers) [beraprost sodium]
[1]
  dissolution in acetic acid buffer: precipitate was produced

## CN(Cc1cnc2nc(N)nc(N)c2n1)c1ccc(C(=O)N[C@@H](CCC(=O)O)C(=O)O)cc1 [methotrexate]
[2]
  solubility of the drug alone in water: almost insoluble in water

## Boc-(Leu-Leu-Ala-Lac)5-Leu-Phe-O-PEG4000-OH
Hartley male guinea pigs; 20 mg/kg
  toxicity by single dose intravenous administration: not observed
Hartley male guinea pigs; iv
  general conditions: Any special abnormality in the general conditions was not seen

B1: egg albumin: positive control in the ASA reaction test (protein, UniProt P01012 2-386, looked up)
Ovalbumin: GSIGAASMEFCFDVFKELKVHHANENIFYCPIAIMSALAMVYLGAKDSTRTQINKVVRFDKLPGFGDSIEAQCGTSVNVHSSLRDILNQITKPNDVYSFSLASRLYAEERYPILPEYLQCVKELYRGGLEPINFQTAADQARELINSWVESQTNGIIRNVLQPSSVDSQTAMVLVNAIVFKGLWEKAFKDEDTQAMPFRVTEQESKPVQMMYQIGLFRVASMASEKMKILELPFASGTMSMLVLLPDEVSGLEQLESIINFEKLTEWTSSNVMEERKIKVYLPRMKMEEKYNLTSVLMAMGITDVFSSSANLSGISSAESLKISQAVHAAHAEINEAGREVVGSAEAGVDAASVSEEFRADHPFLFCIKHIATNAVLFFGRCVSP
Hartley guinea pigs
  anaphylaxis reaction after induction administration: anaphylaxis symptom was seen in all the guinea pigs
